{
  "source": "ChEMBL document CHEMBL4732091",
  "about": "“Design, synthesis and biological evaluation of novel thiosemicarbazone-indole derivatives targeting prostate cancer cells” (Eur J Med Chem, 2021)",
  "key": {"PC-3 [1]": {"test_system": "PC-3", "test": "Induction of cell cycle arrest in human PC-3 cells assessed as accumulation at G1/S phase at 125 nM measured after 48 hrs by propidium iodide staining based flowcytometry method (reference value: 19.23%)", "assay_type": "functional"}, "DU-145 [2]": {"test_system": "DU-145", "test": "Induction of cell cycle arrest in human DU-145 cells assessed as accumulation at G1/S phase measured after 48 hrs by PI staining based Flowcytometry method", "assay_type": "functional", "conditions": "dose 1.5-6 µM"}, "DU-145 [3]": {"test_system": "DU-145", "test": "Induction of apoptosis in human DU-145 cells assessed as cell rounding at 0.5 to 2 uM measured after 72 hrs by Hoechst staining based fluorescence method", "assay_type": "functional", "conditions": "dose 0.5-2 µM"}, "PC-3 [4]": {"test_system": "PC-3", "test": "Induction of apoptosis in human PC-3 cells assessed as early apoptotic cells at 25 nM measured after 72 hrs by Annexin V-FITC/propidium iodide staining based flow cytometry method (reference value: 0.452 %)", "assay_type": "functional"}, "PC-3 [5]": {"test_system": "PC-3", "test": "Induction of apoptosis in human PC-3 cells assessed as early apoptotic cells at 50 nM measured after 72 hrs by Annexin V-FITC/propidium iodide staining based flow cytometry method (Rvb 0.452 %)", "assay_type": "functional"}, "PC-3 [6]": {"test_system": "PC-3", "test": "Induction of apoptosis in human PC-3 cells assessed as viable cells at 100 nM measured after 72 hrs by Annexin V-FITC/propidium iodide staining based flow cytometry method (reference value: 97.2 %)", "assay_type": "functional", "conditions": "read-out: Activity"}, "PC-3 [7]": {"test_system": "PC-3", "test": "Induction of apoptosis in human PC-3 cells assessed as necrotic cells at 100 nM measured after 72 hrs by Annexin V-FITC/propidium iodide staining based flow cytometry method (reference value: 1.2 %)", "assay_type": "functional"}, "DU-145 [8]": {"test_system": "DU-145", "test": "Induction of apoptosis in human DU-145 cells assessed as viable cells at 2 uM measured after 72 hrs by Annexin V-FITC/propidium iodide staining based flow cytometry method (reference value: 96.3 %)", "assay_type": "functional", "conditions": "read-out: Activity"}, "DU-145 [9]": {"test_system": "DU-145", "test": "Induction of apoptosis in human DU-145 cells assessed as necrotic cells at 2 uM measured after 72 hrs by Annexin V-FITC/propidium iodide staining based flow cytometry method (reference value: 1.13 %)", "assay_type": "functional"}, "PC-3 [10]": {"test_system": "PC-3", "test": "Induction of apoptosis in human PC-3 cells assessed as increased cleaved caspase 9/3 expression at 25 to 100 nM measured by Western blot assay", "assay_type": "functional, cell-based", "conditions": "dose 25-100 nM"}, "PC-3 [11]": {"test_system": "PC-3", "test": "Induction of apoptosis in human PC-3 cells assessed as increase in PARP expression at 25 to 100 nM measured by Western blot assay", "assay_type": "functional, cell-based", "conditions": "dose 25-100 nM"}, "DU-145 [12]": {"test_system": "DU-145", "test": "Induction of apoptosis in human DU-145 cells assessed as increase in PARP at 0.5 to 2 uM measured by Western blot assay", "assay_type": "functional, cell-based", "conditions": "dose 0.5-2 µM"}, "PC-3 [13]": {"test_system": "PC-3", "test": "Induction of ROS generation in human PC-3 cells assessed as increase in intracellular ROS level measured after 48 hrs by DCFH-DA staining based flowcytometry method", "assay_type": "functional, cell-based", "conditions": "dose 25-100 nM"}, "DU-145 [14]": {"test_system": "DU-145", "test": "Induction of ROS generation in human DU-145 cells assessed as increase in intracellular ROS level at 250 nM pretreated with NAC followed by compound treatment measured after 48 hrs by DCFH-DA staining based flowcytometry method", "assay_type": "functional, cell-based"}, "PC-3 [15]": {"test_system": "PC-3", "test": "Activation of MAPK signaling in human PC-3 cells assessed as increase in phosphorylated ERK 1/2 (Thr 202/Tyr 204) at 125 to 500 nM measured by Western blot assay", "assay_type": "cell-based", "conditions": "filed as activator, dose 125-500 nM"}, "PC-3 [16]": {"test_system": "PC-3", "test": "Activation of MAPK signaling in human PC-3 cells assessed as increase in phosphorylated p38 (Thr 180/Tyr 182) at 125 to 500 nM measured by Western blot assay", "assay_type": "cell-based", "conditions": "filed as activator, dose 125-500 nM"}, "PC-3 [17]": {"test_system": "PC-3", "test": "Cytotoxicity against human PC-3 cells assessed as cell viability pre-treated with SB203580 for 4 hrs followed by compound treatment and measured after 72 hrs by MTT assay", "assay_type": "functional, cell-based"}, "PC-3 [18]": {"test_system": "PC-3", "test": "Induction of apoptosis in human PC-3 cells assessed as formation of apoptotic bodies at 25 to 100 nM measured after 72 hrs by Hoechst staining based fluorescence microscope method", "assay_type": "functional, cell-based", "conditions": "dose 25-100 nM"}, "DU-145 [19]": {"test_system": "DU-145", "test": "Induction of apoptosis in human DU-145 cells assessed as formation of apoptotic bodies at 0.5 to 2 uM measured after 72 hrs by Hoechst staining based fluorescence method", "assay_type": "functional, cell-based", "conditions": "dose 0.5-2 µM"}, "DU-145 [20]": {"test_system": "DU-145", "test": "Induction of apoptosis in human DU-145 cells assessed as nuclear fragmentation at 0.5 to 2 uM measured after 72 hrs by Hoechst staining based fluorescence method", "assay_type": "functional, cell-based", "conditions": "dose 0.5-2 µM"}},
  "note": "Active and inactive are the calls of the source. The rule behind the calls is not given here.",
  "data": [
    {"smiles": "Cc1ccc(/C=N/NC(=S)Nc2ccc(C(=O)NCCc3c(C)[nH]c4ccccc34)cc2)nc1", "values": [
      {"measurement": "Activity", "setting": "PC-3 [1]", "result": 19.98, "unit": "%"},
      {"measurement": "Activity", "setting": "DU-145 [2]", "result": "Dose-dependent effect"},
      {"measurement": "Activity", "setting": "DU-145 [3]", "result": "Active"},
      {"measurement": "Activity", "setting": "PC-3 [4]", "result": 2.32, "unit": "%"},
      {"measurement": "Activity", "setting": "PC-3 [5]", "result": 5.6, "unit": "%"},
      {"measurement": "viability at 0.1 µM", "setting": "PC-3 [6]", "result": 35.9, "unit": "%"},
      {"measurement": "Activity", "setting": "PC-3 [7]", "result": 9.14, "unit": "%"},
      {"measurement": "viability at 2 µM", "setting": "DU-145 [8]", "result": 43.8, "unit": "%"},
      {"measurement": "Activity", "setting": "DU-145 [9]", "result": 7.23, "unit": "%"},
      {"measurement": "Activity", "setting": "PC-3 [10]", "result": "Active"},
      {"measurement": "Activity", "setting": "PC-3 [11]", "result": "Active"},
      {"measurement": "Activity", "setting": "DU-145 [12]", "result": "Active"},
      {"measurement": "Activity", "setting": "PC-3 [13]", "result": "Dose-dependent effect"},
      {"measurement": "Activity", "setting": "DU-145 [14]", "result": "inactive"},
      {"measurement": "Activity", "setting": "PC-3 [15]", "result": "Active"},
      {"measurement": "Activity", "setting": "PC-3 [16]", "result": "Active"},
      {"measurement": "inhibition", "setting": "PC-3 [17]", "result": "inactive"},
      {"measurement": "Activity", "setting": "PC-3 [18]", "result": "Active"},
      {"measurement": "Activity", "setting": "DU-145 [19]", "result": "Active"},
      {"measurement": "Activity", "setting": "DU-145 [20]", "result": "Active"}
    ]}
  ]
}
